Measurements reported in patent US20260305610A1, “TRIAZOLE COMPOUND, AND PREPARATION METHOD THEREFOR, HERBICIDAL COMPOSITION AND USE THEREOF” (QINGDAO KINGAGROOT CHEMICAL COMPOUND CO., LTD., priority 2023, published 2026).

Columns and labels:
major crops = assay: Pre-emergence test experiment (crops); assay type: in vivo; set-up: key: 9: completely dead; 8: growth control rate is greater than or equal to 90% and less than 100%; 7: growth control rate is greater than or equal to 80% and less than 90%; 6: growth control rate is greater than or equal to 70% and less than 80%; growth control rate is greater than or equal to 50% and less than 70%; 4: growth control rate is greater than or equal to 30% and less than 50%; growth control rate is greater than or equal to 20% and less than 30%; growth control rate is greater than or equal to 10% and less than 20%; growth control rate is less than 10%; 0: no effect; conditions: 30 g a.i./ha
[1] = tested on: monocotyledonous and dicotyledonous weeds; assay: Pre-emergence test experiment (weeds); assay type: in vivo; set-up: key: 9: completely dead; 8: growth control rate is greater than or equal to 90% and less than 100%; 7: growth control rate is greater than or equal to 80% and less than 90%; 6: growth control rate is greater than or equal to 70% and less than 80%; growth control rate is greater than or equal to 50% and less than 70%; 4: growth control rate is greater than or equal to 30% and less than 50%; growth control rate is greater than or equal to 20% and less than 30%; growth control rate is greater than or equal to 10% and less than 20%; growth control rate is less than 10%; 0: no effect; conditions: 30 g a.i./ha

In the case of `CCc1ccc(-n2cnc(C(F)(F)F)n2)nc1Oc1ccc(F)c(OC(F)(F)F)c1` [Compound 136], the “Pre-emergence plant damage level (growth control rate) on Corn” value (“Pre-emergence plant damage level … on Corn” below) (major crops) is reported as 0, the “Pre-emergence plant damage level (growth control rate) on Cotton” value (shortened to “Pre-emergence plant damage level … on Cotton”) (major crops) is reported as 0 and the “Pre-emergence plant damage level (growth control rate) on Soybean” value (shortened to “Pre-emergence plant damage level … on Soybean”) (major crops) is reported as 0. The “Pre-emergence activity level (growth control rate) on Amaranthus retroflexus” value [1] was 9, the “Pre-emergence activity level (growth control rate) on Descurainia sophia” value [1] was 9 and the “Pre-emergence activity level (growth control rate) on Digitaria sanguinalis” value [1] was 9. For the same compound, the “Pre-emergence activity level (growth control rate) on Setaria viridis” value [1] was 9, the “Pre-emergence activity level (growth control rate) on Solanum nigrum” value [1] was 9 and the “Pre-emergence activity level (growth control rate) on Veronica” value (“Pre-emergence activity level … on Veronica” below) [1] was 9.

With `CCc1ccc(-n2cnc(C(F)(F)F)n2)nc1Oc1cccc(C(F)F)c1` [Compound 137] the “Pre-emergence plant damage level … on Corn” value (major crops) was 0, the “Pre-emergence plant damage level … on Cotton” value (major crops) was 0 and the “Pre-emergence plant damage level … on Soybean” value (major crops) was 0. For the same compound, the “Pre-emergence activity level (growth control rate) on Amaranthus retroflexus” value [1] was 9, the “Pre-emergence activity level (growth control rate) on Descurainia sophia” value [1] was 9 and the “Pre-emergence activity level (growth control rate) on Digitaria sanguinalis” value [1] was 8 (growth control rate is greater than or equal to 90% and less than 100%). For the same compound, the “Pre-emergence activity level (growth control rate) on Setaria viridis” value [1] was 9, the “Pre-emergence activity level (growth control rate) on Solanum nigrum” value [1] was 9 and the “Pre-emergence activity level … on Veronica” value [1] was 9.

For `COCc1ccc(-n2cnc(C(F)(F)F)n2)nc1Oc1cccc(Cl)c1` [Compound 139], the “Pre-emergence plant damage level … on Corn” value (major crops) was 0, the “Pre-emergence plant damage level … on Cotton” value (major crops) was 0 and the “Pre-emergence plant damage level … on Soybean” value (major crops) was 0. The “Pre-emergence activity level (growth control rate) on Amaranthus retroflexus” value [1] was 9, the “Pre-emergence activity level (growth control rate) on Descurainia sophia” value [1] was 9 and the “Pre-emergence activity level (growth control rate) on Digitaria sanguinalis” value [1] was 9. The “Pre-emergence activity level (growth control rate) on Setaria viridis” value [1] was 9, the “Pre-emergence activity level (growth control rate) on Solanum nigrum” value [1] was 9 and the “Pre-emergence activity level … on Veronica” value [1] was 9.

With `COCc1ccc(-n2cnc(C(F)(F)C(F)(F)F)n2)nc1Oc1cncc(C(F)(F)F)c1` [Compound 140] the “Pre-emergence plant damage level … on Corn” value (major crops) was 0, the “Pre-emergence plant damage level … on Cotton” value (major crops) was 0 and the “Pre-emergence plant damage level … on Soybean” value (major crops) was 0. The “Pre-emergence activity level (growth control rate) on Descurainia sophia” value [1] was 9, the “Pre-emergence activity level (growth control rate) on Digitaria sanguinalis” value [1] was 8 (growth control rate is greater than or equal to 90% and less than 100%) and the “Pre-emergence activity level (growth control rate) on Setaria viridis” value [1] was 9. For the same compound, the “Pre-emergence activity level (growth control rate) on Solanum nigrum” value [1] was 9 and the “Pre-emergence activity level … on Veronica” value [1] was 9.

With `COCc1ccc(-n2cnc(C(F)(F)C(F)(F)F)n2)nc1Oc1cccc(C(F)(F)F)c1` [Compound 141] the “Pre-emergence plant damage level … on Corn” value (major crops) was 0, the “Pre-emergence plant damage level … on Cotton” value (major crops) was 0 and the “Pre-emergence plant damage level … on Soybean” value (major crops) was 0. For the same compound, the “Pre-emergence activity level (growth control rate) on Amaranthus retroflexus” value [1] was 8 (growth control rate is greater than or equal to 90% and less than 100%), the “Pre-emergence activity level (growth control rate) on Descurainia sophia” value [1] was 9 and the “Pre-emergence activity level (growth control rate) on Digitaria sanguinalis” value [1] was 9. The “Pre-emergence activity level (growth control rate) on Setaria viridis” value [1] was 8 (growth control rate is greater than or equal to 90% and less than 100%), the “Pre-emergence activity level (growth control rate) on Solanum nigrum” value [1] was 9 and the “Pre-emergence activity level … on Veronica” value [1] was 9.

For `COCc1ccc(-n2cnc(C(F)(F)F)n2)nc1Oc1cncc(C(F)(F)F)c1` [Compound 142], the “Pre-emergence plant damage level … on Corn” value (major crops) was 0, the “Pre-emergence plant damage level … on Cotton” value (major crops) was 0 and the “Pre-emergence plant damage level … on Soybean” value (major crops) was 0. The “Pre-emergence activity level (growth control rate) on Amaranthus retroflexus” value [1] was 9, the “Pre-emergence activity level (growth control rate) on Descurainia sophia” value [1] was 9 and the “Pre-emergence activity level (growth control rate) on Digitaria sanguinalis” value [1] was 9. The “Pre-emergence activity level (growth control rate) on Setaria viridis” value [1] was 9 and the “Pre-emergence activity level (growth control rate) on Solanum nigrum” value [1] was 9.
